Measured values: patent US9682938B2, “Pyrazolone derivatives as nitroxyl donors” (Cardioxyl Pharmaceuticals, Inc., priority 2014, dated 2017)

Key:
Type in all cases: in vitro ADME
[1] = In vitro plasma stability, dog plasma; conditions: male, pH 7.4, 5 μM, 37° C., sampling 0-360 minutes, read-out: T1/2 Dog
Protocol: (§1) Certain compounds from Table 1 were tested for their stability in plasma. The assay system comprised plasma from rat, dog or human (at least 3 donors, male, pooled) at pH 7.4, and (ii) an anticoagulant (sodium heparin or sodium citrate). Each test compound (5 μM) was incubated in plasma at 37° C. on a THERMOMIXER® with shaking. Three samples (n=3) were taken at each of seven sampling time points: 0, 10, 30, 60, 90, 180 and 360 minutes. The samples were immediately combined with 3 volumes (i.e., 3 times the volume of plasma) of acetonitrile containing 1% formic acid and an internal standard to terminate the reaction. AB SCIEX API 3000 LC-MS/MS analysis of the test compounds was performed without a standard curve. Plasma half-lives (T1/2) of the test compounds were determined from graphs of the percent remaining values using the peak area response ratio.

[2] = In vitro plasma stability, rat plasma; conditions: male, pH 7.4, 5 μM, 37° C., sampling 0-360 minutes, read-out: T1/2 Rat
Protocol: as §1

[3] = In vitro plasma stability, human plasma; conditions: male, pH 7.4, 5 μM, 37° C., sampling 0-360 minutes, read-out: T1/2 Human
Protocol: as §1

Row | half-life at 5 μM [1] [min] | half-life at 5 μM [2] [min] | half-life at 5 μM [3] [min] | Structure (SMILES)
1 | 114 | 44 | 55 | CN1N=C(c2cccc(C(F)(F)F)c2)C(C)(NO)C1=O (stereo not drawn) [Compound 22, 4-(hydroxyamino)-2,4-dimethyl-5-(3-(trifluoromethyl)phenyl)-2,4-dihydro-3H-pyrazol-3-one]
2 | 66 | 89 | 51 | COCCN(C)c1cc(C2=NN(C)C(=O)C2(C)NO)ccc1S(C)(=O)=O (stereo not drawn) [Compound 83, 4-(Hydroxyamino)-3-{4-methanesulfonyl-3-[(2-methoxyethyl)(methyl)amino]phenyl}-1,4-dimethyl-4,5-dihydro-1H-pyrazol-5-one]
3 | 86 | 125 | 105 | CN1N=C(c2ccc(C(=O)N3CCC(F)(F)CC3)cc2)C(C)(NO)C1=O (stereo not drawn) [Compound 85, 3-[4-(4,4-Difluoropiperidine-1-carbonyl)phenyl]-4-(hydroxyamino)-1,4-dimethyl-4,5-dihydro-1H-pyrazol-5-one]
4 | 12 | 9 | 11 | CO/N=C(\C)C1(NO)C(=O)N(C)N=C1c1ccccc1 (stereo not drawn) [Compound 46, 4-(hydroxyamino)-4-(1-(methoxyimino)ethyl)-2-methyl-5-phenyl-2,4-dihydro-3H-pyrazol-3-one]
5 | < 1 | < 1 | < 1 | CO/N=C(\C)C1(NO)C(=O)N(c2ccccc2)N=C1[S+]([O-])c1ccccc1 (stereo not drawn) [Compound 130, 3-(Benzenesulfinyl)-4-(hydroxyamino)4[1-(methoxyimino)ethyl]-1-phenyl-4,5-dihydro1H-pyrazol-5-one]
6 | 29 | 36 | 57 | CN1N=C(c2ccc(S(=O)(=O)c3ccccc3)cc2)C(C)(NO)C1=O (stereo not drawn) [Compound 89, 3-[4-(Benzenesulfonyl)phenyl]-4-(hydroxyamino)-1,4-dimethyl-4,5-dihydro-1H-pyrazol-5-one]
7 | 6 | – | – | CC1=NN(C)C(=O)C1(NO)c1cccc(F)c1 (stereo not drawn) [Compound 96, 4-(3-Fluorophenyl)-4-(hydroxyamino)-1,3-dimethyl-4,5-dihydro-1H-pyrazol-5-one]
8 | 10 | 49 | 18 | CO/N=C(\C)C1(NO)C(=O)N(C)N=C1c1ccc(OC)cc1 (stereo not drawn) [Compound 107, 4-(Hydroxyamino)-4-[1-(methoxyimino)ethyl]-3-(4-methoxyphenyl)-1-methyl-4,5-dihydro-1H-pyrazol-5-one]
9 | 44 | 114 | – | CCOc1cc(F)ccc1C1=NN(C)C(=O)C1(C)NO (stereo not drawn) [Compound 62, 3-(2-ethoxy-4-fluorophenyl)-4-(hydroxyamino)-1,4-dimethyl-1H-pyrazol-5(4H)-one]
10 | 4 | – | – | CC1=NN(C)C(=O)C1(NO)c1cccc(Cl)c1 (stereo not drawn) [Compound 99, 4-(3-Chlorophenyl)-4-(hydroxyamino)-1,3-dimethyl-4,5-dihydro-1H-pyrazol-5-one]
11 | 59 | 134 | 60 | Cc1cc(C2=NN(C)C(=O)C2(C)NO)ccc1[S+](C)[O-] (stereo not drawn) [Compound 39, 4-(hydroxyamino)-2,4-dimethyl-5-(3-methyl-4-(methylsulfinyl)phenyl)-2,4-dihydro-3H-pyrazol-3-one]
12 | 20 | – | – | CO/N=C(\C)C1(NO)C(=O)N(C)N=C1C1CC1 (stereo not drawn) [Compound 20, 5-cyclopropyl-4-(hydroxyamino)-4-(1-(methoxyimino)ethyl)-2-methyl-2,4-dihydro-3H-pyrazol-3-one]
13 | 3 | – | – | CC1=NN(C)C(=O)C1(NO)/C(C)=N/OCc1ccccc1 (stereo not drawn) [Compound 103, 4-(Hydroxyamino)-1,3-dimethyl-4-[1-(benzyloxyimino)ethyl]-4,5-dihydro-1H-pyrazol-5-one]
14 | 87 | – | – | CO/N=C(\C)C1(NO)C(=O)N(C(C)C)N=C1C(C)(C)C (stereo not drawn) [Compound 28, 5-(tert-butyl)-4-(hydroxyamino)-2-iso-propyl-4-(1-(methoxyimino)ethyl)-2,4-dihydro-3H-pyrazol-3-one]
15 | < 1 | – | – | CC1=NN(C)C(=O)C1(NO)/C(C)=N/Oc1ccccc1 (stereo not drawn) [Compound 102, 4-(Hydroxyamino)-1,3-dimethyl-4-[1-(phenoxyimino)ethyl]-4,5-dihydro-1H-pyrazol-5-one]
16 | < 1 | – | – | CO/N=C(\C)C1(NO)C(=O)N(c2ccc(Br)cc2)N=C1C(C)C (stereo not drawn) [Compound 17, 2-(4-bromophenyl)-4-(hydroxyamino)-5-iso-propyl-4-(1-(methoxyimino)ethyl)-2,4-dihydro-3H-pyrazol-3-one]
17 | 3 | 7 | – | CO/N=C(\C)C1(NO)C(=O)N(c2ccccc2)N=C1Sc1ccccc1 (stereo not drawn) [Compound 128, 4-(Hydroxyamino)-4-[1(methoxyimino)ethyl]-1-phenyl-3-(phenylsulfanyl)-4,5-dihydro-1H-pyrazol-5-one]
18 | 11 | – | – | CC1=NN(c2ccc(Br)cc2)C(=O)C1(NO)c1ccccc1 (stereo not drawn) [Compound 47, 1-(4-bromophenyl)-4-(hydroxyamino)-3-methyl-4-phenyl-1H-pyrazol-5(4H)-one]

Row | half-life at 5 μM [1] [min] | half-life at 5 μM [2] [min] | half-life at 5 μM [3] [min] | Structure (SMILES)
19 | 69 | – | – | CN1N=C(c2ccccc2OC(F)(F)F)C(C)(NO)C1=O (stereo not drawn) [Compound 56, 4-(hydroxyamino)-1,4-dimethyl-3-(2-(trifluoromethoxy)phenyl)-1H-pyrazol-5(4H)-one]
20 | 21 | – | – | COc1ccc(C2(NO)C(=O)N(C)N=C2C)cc1C (stereo not drawn) [Compound 76, 4-(Hydroxyamino)-4-(4-methoxy-3-methylphenyl)-1,3-dimethyl-4,5-dihydro-1H-pyrazol-5-one]
21 | 116 | – | – | COc1ccccc1C1=NN(C)C(=O)C1(C)NO (stereo not drawn) [Compound 55, 4-(hydroxyamino)-3-(2-methoxyphenyl)-1,4-dimethyl-1H-pyrazol-5(4H)-one]
22 | 26 | – | – | CC1(NO)C(=O)N(c2ccc(Br)cc2)N=C1c1ccccc1Cl (stereo not drawn) [Compound 44, 1-(4-bromophenyl)-3-(2-chlorophenyl)-4-(hydroxyamino)-4-methyl-1H-pyrazol-5(4H)-one]
23 | > 360 | – | – | CO/N=C(\C)C1(NO)C(=O)N(C)N=C1C(C)C (stereo not drawn) [Compound 63, 4-(hydroxyamino)-3-isopropyl-4-(1-(methoxyimino)ethyl)-1-methyl-1H-pyrazol-5(4H)-one]
24 | 58 | – | – | CC1(NO)C(=O)N(c2ccccc2)N=C1c1ccccc1F (stereo not drawn) [Compound 29, 5-(2-fluorophenyl)-4-(hydroxyamino)-4-methyl-2-phenyl-2,4-dihydro-3H-pyrazol-3-one]
25 | 170 | – | – | CC(C)N1N=C(c2ccccc2Cl)C(C)(NO)C1=O (stereo not drawn) [Compound 8, 5-(2-chlorophenyl)-4-(hydroxyamino)-2-iso-propyl-4-methyl-2,4-dihydro-3H-pyrazol-3-one]
26 | 159 | – | – | CN1N=C(c2cccc(Cl)c2)C(C)(NO)C1=O (stereo not drawn) [Compound 54, 3-(3-chlorophenyl)-4-(hydroxyamino)-1,4-dimethyl-1H-pyrazol-5(4H)-one]
27 | 19 | – | – | CN1N=C(c2ccc(Cl)cc2Cl)C(C)(NO)C1=O (stereo not drawn) [Compound 58, 3-(2,4-dichlorophenyl)-4-(hydroxyamino)-1,4-dimethyl-1H-pyrazol-5(4H)-one]
28 | > 360 | – | – | CC1(NO)C(=O)N(c2ccccc2)N=C1C(F)(F)F (stereo not drawn) [Compound 61, 4-(hydroxyamino)-4-methyl-1-phenyl-3-(trifluoromethyl)-1H-pyrazol-5(4H)-one]
29 | 15 | – | – | CN1N=C(c2cccc(Cl)c2Cl)C(C)(NO)C1=O (stereo not drawn) [Compound 57, 3-(2,3-dichlorophenyl)-4-(hydroxyamino)-1,4-dimethyl-1H-pyrazol-5(4H)-one]
30 | 226 | – | – | CN1N=C(c2ccc(C(C)(C)C)cc2)C(C)(NO)C1=O (stereo not drawn) [Compound 91, 3-(4-tert-Butylphenyl)-4-(hydroxyamino)-1,4-dimethyl-4,5-dihydro-1H-pyrazol-5-one]
31 | 356 | – | – | CC1(NO)C(=O)N(c2ccc(Br)cc2)N=C1c1ccccc1 (stereo not drawn) [Compound 50, 1-(4-bromophenyl)-4-(hydroxyamino)-4-methyl-3-phenyl-1H-pyrazol-5(4H)-one]
32 | 8 | – | – | CC1=NN(C)C(=O)C1(NO)c1ccc([S+](C)[O-])cc1 (stereo not drawn) [Compound 65, 4-(hydroxyamino)-1,3-dimethyl-4-(4-(methylsulfinyl)phenyl)-1H-pyrazaol-5(4H)-one]
33 | 8 | – | – | CO/N=C(\C)C1(NO)C(=O)N(C)N=C1c1ccc(C(F)(F)F)cc1 (stereo not drawn) [Compound 52, 4-(hydroxyamino)-4-(1-(methoxyimino)ethyl)-1-methyl-3-(4-(trifluoromethyl)phenyl)-1H-pyrazol-5(4H)-one]
34 | 8 | – | – | CO/N=C(\C)C1(NO)C(=O)N(c2ccccc2)N=C1C(C)C (stereo not drawn) [Compound 16, 4-(hydroxyamino)-5-iso-propyl-4-(1-(methoxyimino)ethyl)-2-phenyl-2,4-dihydro-3H-pyrazol-3-one]
35 | 49 | – | – | CN1N=C(c2ccccc2C(F)(F)F)C(C)(NO)C1=O (stereo not drawn) [Compound 60, 4-(hydroxyamino)-1,4-dimethyl-3-(2-(trifluoromethyl)phenyl)-1H-pyrazol-5(4H)-one]
36 | 120 | – | – | CN1N=C(c2ccc(C(=O)NCC(=O)O)cc2)C(C)(NO)C1=O (stereo not drawn) [Compound 95, 2-({4-[4-(Hydroxyamino)-1,4-dimethyl-5-oxo-4,5-dihydro-1H-pyrazol-3-yl]phenyl}formamido)acetic acid]
